In patent publication US8507440B2, “Protein kinase C peptides for use in withdrawal” (The Board of Trustees of the Leland Stanford Junior …, priority 2002, dated 2013):
Like-named read-outs stand apart in the source and are kept apart here.

Columns and labels:
[1] = tested on: 7 day old and 21 day old rats; experiment: ethanol withdrawal mechanical allodynia testing (von Frey threshold withdrawal force); format: in vivo, rat
[2] = for maximal blood EtOH concentration: 30 minutes post 4 g/kg 15% EtOH; for maximal EtOH concentration in spinal cord: 4 g/kg 15% EtOH
[3] = in vivo; details: rat, 4 g/kg
[4] = tested on: N-methyl-D-aspartate (NMDA) receptor currents; experiment: alcohol withdrawal hyperresponsiveness of NMDA-evoked currents in lumbar spinal cord slice motor neurons; format: cell-based, rat; details: 100 mM EtOH, n=11 motor neurons
Excerpt: Spinal cords were taken from young rats, and slices of these cords were made and placed in artificial cerebrospinal fluid for patch clamp electrophysiological analysis, to characterize the ability of γPKC peptides to mediate alcohol withdrawal hyperresponsiveness of N-methyl-D-aspartate (NMDA) receptor currents. FIG. 7A is a schematic diagram of the technique, where a lumbar spinal cord slice 10 is shown. The placement of a recording electrode 12 and a pipette 14 for application of NMDA relative to a motor neuron 16 is illustrated.
Sprague-Dawley rats at postnatal day 7-10 were anesthetized with halothane, decapitated, and the spinal cords were quickly removed. Slices […] thick were sectioned from the lumbar region. Whole cell voltage clamp recordings were made from visually-identified motor neurons using infrared video microscopy, a 60× water immersion lens, and a MultiClamp 700A patch clamp amplifier. Cells were held at a holding potential of −60 mV in artificial cerebrospinal fluid (ACSF) containing bicuculline methiodide ([…]), strychnine ([…]), and tetrodotoxin ([…]). Postsynaptic currents were evoked by direct pressure application of 2 mM N-methyl-D-aspartate (NMDA) from a pipette positioned near the recorded cell at 1-2 min intervals, as illustrated in FIG. 7A. The area of evoked currents during and following 100 mM ethanol (EtOH) application was measured and normalized to the average baseline current area during the 10 minutes preceding EtOH application. Data are expressed as mean +/−SEM: Statistical significance was determined by one-way ANOVA followed by Dunn's or Tukey's multiple comparison test with significance set at p<0.05.

[5] = tested on: 7 day old and 21 day old rats; experiment: ethanol withdrawal thermal hyperalgesia testing (paw withdrawal latency); format: in vivo, rat; details: 4 g/kg 15% EtOH
[6] = molecular target: T1, γPKC (Rattus norvegicus, UniProt P63319); format: cell-based; details: after application of ethanol 100 mM; control about 14
T1 construct: from tissue; host or cells: lumbar spinal cord slices of postnatal day 7-10 Sprague-Dawley rats
Description: Fluorescence immunocytochemical studies were performed on the spinal cord sections, as described in Example 3. The sections were incubated with an anti-γPKC antibody and an anti-neuronal antibody to identify neurons. […] Translocation of γPKC was quantified by counting the number of cells with γPKC localized to the nucleus before (control) and after application of ethanol, as well as after washing with artificial cerebrospinal fluid. […] Two to three sections per animal were counted.
Fluorescence immunocytochemical studies were performed on spinal cord sections […] from control slices (perfused with ACSF for 70 minutes) and EtOH treated slices (perfused with ACSF for 30 minutes followed by 20 min 100 mM EtOH and 20 min wash with ACSF). The sections were incubated with a rabbit anti-PKCg polyclonal antibody (1:500) overnight at 4° C. In some cord sections, a mouse anti-neuronal nuclei monoclonal antibody (NeuN, 1:750) was added to identify neurons. After several washes with ACSF, the sections were labeled for 2 hours at room temperature with fluorescein-labeled secondary antibodies (1:500). Double immunofluorescence was assessed with a laser confocal microscope.

[7] = tested on: γPKC
Description: (§1) To determine if EtOH alters the expression and cellular localization of εPKC and γPKC, immunohistochemistry was performed on L4/5 dorsal root ganglion (DRG) and L4/5 lumbar spinal cord sections, as described in Example 4. Rat at postnatal days 7 and 21, treated with saline or 4 g/kg 15% EtOH, were euthanized at 2, 4, or 6 hours post injection for isolation of the lumbar spinal cords.
(§2) Animals administered a single dose of 4 g/kg 15% EtOH or saline (i.p.) were deeply anesthetized with halothane and euthanized at 2, 4, or 6 hours post injection by transcardiac perfusion (phosphate-buffered saline wash, followed by 4% formaldehyde in PBS, pH 7.4). Following perfusion, lumbar spinal cord and L4/L5 dorsal root ganglia (DRG) were isolated and post-fixed for 3 hours in 4% formaldehyde solution followed by cryoprotection in 30% sucrose/PBS at 4° C. Sections were freeze-mounted in OCT-embedding medium on cork blocks and stored at −80° C. until analysis. For spinal cord sections, free-floating immunohistochemistry was performed on 30 μm L4-L5 spinal sections. Dorsal root ganglia were cut on a cryostat at 10 μm and slide mounted. Slides were heated overnight at 32° C. Immunohistochemistry was performed utilizing an avidin-biotin complex (ABC) technique as previously described (Sweitzer et al., Brain Res., 829(1-2):209-221 (1999)). Rabbit polyclonal antibodies to γPKC (1:500 from Santa Cruz) or εPKC (1:1,000 from Santa Cruz) were used. Immunohistochemistry was scored blinded to experimental conditions.
(§3) For both spinal cord tissues and DRG, densitometry using ImageJ software was performed on at least three sections from each of three individual animals.

[8] = tested on: εPKC
Description: as §1, §2, §3

[9] = 21 day old rats, 4 g/kg and 0.5 g/kg 15% EtOH

time of peak spinal cord EtOH level ([2]; 7 day old and 21 day old rats, post injection): 30 min
maximal blood EtOH concentration ([2]; 7 day old pups): 5.91 ± 0.46 µg/mL
maximal EtOH concentration in spinal cord ([2]; 7 day old rats): 14.8 μg/mg tissue
maximal EtOH concentration in spinal cord ([2]; 21 day old rats): 11.4 μg/mg tissue
maximal blood EtOH concentration ([2]; 21 day old rats): 5.67 ± 0.60 µg/mL
time of peak blood EtOH concentration ([2]; both 7 day old and 21 day old rats, post-ethanol injection): 30 min
spinal cord later-phase half-life relative to half life for blood EtOH levels ([2]; rat, in vivo): 50%
half-life ([3]; spinal cord, ip, T ½ Early, 7 day old rat, 4 g/kg 15% EtOH i.p.): 1.6 h
half-life ([3]; spinal cord, ip, T ½ Early, 21 day old rat, 4 g/kg 15% EtOH i.p.): 1.5 h
half-life ([3]; spinal cord, ip, T ½ Late, 7 day old rat, 4 g/kg 15% EtOH i.p.): 11.5 h
half-life ([3]; spinal cord, ip, T ½ Late, 21 day old rat, 4 g/kg 15% EtOH i.p.): 11.7 h
half-life ([3]; whole blood, intraperitoneal, extension of blood late phase half-life of 21 day old beyond 7 day old rats, blood): 4 h
half-life ([3]; whole blood, ip, T ½ Early, Blood, 7 day old rat, 4 g/kg 15% EtOH i.p.): 1.9 h
half-life ([3]; whole blood, ip, T ½ Early, Blood, 21 day old rat, 4 g/kg 15% EtOH i.p.): 1.7 h
half-life ([3]; whole blood, ip, T ½ Late, Blood, 7 day old rat, 4 g/kg 15% EtOH i.p.): 18.1 h
half-life ([3]; whole blood, ip, T ½ Late, Blood, 21 day old rat, 4 g/kg 15% EtOH i.p.): 22.5 h
normalized NMDA current (INMDA) area after application of alcohol [4]: increases
number of cells having γPKC localized in the nucleus [6]: about 6
SMILES: CCO [EtOH, ethanol]
threshold withdrawal force after ethanol ([1]; 7 day old rats, 1 g/kg 15% EtOH): did not significantly alter the threshold withdrawal force
paw threshold withdrawal force after ethanol ([1]; 7 day old rats, 4 g/kg 15% EtOH, 6 hours and 8 hours post injection): exhibited mechanical allodynia
threshold withdrawal force after ethanol ([1]; 7 day old rats, 4 g/kg 15% EtOH, two hour test interval): slight but insignificant increase in threshold withdrawal force
mechanical thresholds after ethanol [1, 9]: maximally decreased mechanical thresholds at 6 hours post EtOH injection
time withdrawal thresholds remained below baseline [1, 9]: up to 72 hours
thermal paw withdrawal latency after ethanol ([5]; 7 day old rats, 6 hours): Thermal hyperalgesia as evidenced by a decrease in paw withdrawal latency, was observed
thermal paw withdrawal latency after ethanol ([5]; 21 day old rats, entire time period): did not exhibit a decrease in paw withdrawal latency
γPKC cellular localization ([7]; 2 hours post-EtOH injection): had translocated to the plasma membrane
number of somata staining positive for γPKC above saline control levels ([7]; 7 day old rats, lamina II, 6 hours post injection of 4 g/kg 15% EtOH): 4 fold
γPKC staining intensity ([7]; 21 day old rats, 2 to 6 hours post-EtOH injection): γPKC staining intensity increased
cells staining positive for εPKC ([8]; 7 day old rats, 2 hour exposure to 4 g/kg 15% EtOH): the percentage of cells staining positive for εPKC increased
cells staining positive for εPKC and staining intensity ([8]; 21 day old rats, 4 g/kg 15% EtOH): did not result in an increase in the number of positive staining cells or in the staining intensity within positively stained cells
